The source of these data is ChEMBL document CHEMBL1201862, “PubChem BioAssay data set” (2004).

SMILES strings stand for the structures.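 Protocol summary: plate cells (96-well), add compound at 5 concentrations, incubate 48 h, interpolate endpoints linearly. GI50 = concentration required for 50% inhibition of growth.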 The source made the active and inactive calls. No stated cut-off is given here; in the data, active = GI50 up to about 1.1 µM and inactive = higher.

Some test systems named below: OVCAR-4; NCI-H23; U-251; SK-MEL-28; T47D; IGROV-1; HL-60; SF-268; SF-539; SN12C; RXF 393; HCT-116; EKVX; CAKI-1; HOP-92; HCC 2998; HT-29; M14; ACHN; MCF7.
Holding throughout (assay): NCI-60 cell line screen, 48 h

`COc1cc([C@@H]2c3cc4c(cc3[C@@H](OC3OC5COC(C)OC5C(O)C3O)[C@H]3COC(=O)[C@H]23)OCO4)cc(OC)c1O` (stereo not given in full): the GI50 in the experiment on OVCAR-4 was 113 µM (inactive); with NCI-H23, 6.01 µM (inactive); in the experiment with U-251, 3.3 µM (inactive); with SK-MEL-28, 22.1 µM (inactive); in the experiment on T47D it was 0.897 µM (active); in the experiment on IGROV-1, 31.4 µM (inactive). In addition, the GI50 in the experiment on HL-60 was 0.807 µM (active); in the experiment with SF-268, 7.6 µM (inactive); in the experiment with SF-539, 3.27 µM (inactive); in the experiment with SN12C it was 5.2 µM (inactive); in the experiment on RXF 393, 14.9 µM (inactive); with HCT-116, 13.6 µM (inactive). Further, the GI50 was 27.7 µM (inactive) in the experiment with EKVX; 4.2 µM (inactive) with CAKI-1; 9.2 µM (inactive) in the experiment on HOP-92; 9.02 µM (inactive) in the experiment with HCC 2998; 28.8 µM (inactive) in the experiment on HT-29.
With `COC(=O)C(Cc1cc(OC)c(OC)c(OC)c1)(NC(=O)c1ccccc1)P(=O)(OC)OC` (stereo not given), the GI50 with OVCAR-4, with NCI-H23, with U-251, in the experiment with SK-MEL-28, in the experiment with IGROV-1 and in the experiment with M14 was > 100 µM (inactive) throughout. Further, the GI50 in the experiment with HL-60, in the experiment with SF-268, in the experiment on SF-539, in the experiment with SN12C, in the experiment with RXF 393 and in the experiment with HCT-116 was > 100 µM (inactive) each time. Also, the GI50 in the experiment with EKVX, with CAKI-1, in the experiment with HOP-92, in the experiment on HCC 2998, in the experiment on ACHN and with HT-29 was > 100 µM (inactive) throughout.
Regarding `CC(C)C1=C(Cc2ccccc2)C(=O)O/C1=C\c1cc(Cl)c(O)c(Cl)c1`, the GI50 in the experiment with OVCAR-4 is 15.6 µM (inactive); in the experiment on NCI-H23, 13.8 µM (inactive); in the experiment on U-251, 17.7 µM (inactive); in the experiment on SK-MEL-28, 18.5 µM (inactive); with MCF7, 27.9 µM (inactive); in the experiment with IGROV-1, 19.4 µM (inactive). Also, the GI50 with M14 was 19.1 µM (inactive); in the experiment on HL-60, 16.3 µM (inactive); with SF-268, 22.6 µM (inactive); with SF-539 it was 21.5 µM (inactive); in the experiment on SN12C, 17.2 µM (inactive); with RXF 393, 16.4 µM (inactive). Also, the GI50 in the experiment on HCT-116 is 18.2 µM (inactive); with EKVX, 26.1 µM (inactive); in the experiment with CAKI-1, 15.8 µM (inactive); in the experiment with HCC 2998 it was 18.6 µM (inactive); with ACHN it was 17.3 µM (inactive); in the experiment with HT-29, 16.9 µM (inactive).
For `COC1(OC)CC(CO)(CNc2nc(N)nc(Cl)c2C=O)C1`, the GI50 in the experiment on OVCAR-4 is 25.2 µM (inactive); in the experiment with NCI-H23, 17.6 µM (inactive); in the experiment with U-251 it was 34.6 µM (inactive); in the experiment on SK-MEL-28, 50 µM (inactive); in the experiment on MCF7, 57.7 µM (inactive); in the experiment on IGROV-1 it was 20.7 µM (inactive). The GI50 was 13.6 µM (inactive) in the experiment on HL-60; 44.2 µM (inactive) in the experiment with SF-268; > 100 µM (inactive) with SF-539; 28.4 µM (inactive) in the experiment with SN12C; 34.1 µM (inactive) with RXF 393; 39.3 µM (inactive) in the experiment on HCT-116. Moreover, the GI50 was 22.8 µM (inactive) in the experiment with EKVX; 42.6 µM (inactive) in the experiment on CAKI-1; 14.6 µM (inactive) with HOP-92; 28.1 µM (inactive) in the experiment with HCC 2998; 3.48 µM (inactive) in the experiment with ACHN; 55.6 µM (inactive) with HT-29.
Take `Clc1ccc(CCN[C@H]2CCCC[C@H]2N2CCCC2)cc1Cl`: the GI50 in the experiment with OVCAR-4 was 21.5 µM (inactive); in the experiment on NCI-H23 it was 23.8 µM (inactive); with U-251 it was 43.7 µM (inactive); in the experiment on SK-MEL-28 it was 28.9 µM (inactive); in the experiment on MCF7, 16.1 µM (inactive); in the experiment with IGROV-1, 16.8 µM (inactive). Also, the GI50 in the experiment with M14 was 15.3 µM (inactive); with HL-60, 20.1 µM (inactive); with SF-268, 32.2 µM (inactive); in the experiment on SF-539, 28.4 µM (inactive); in the experiment on SN12C, 20.2 µM (inactive); with HCT-116, 19.5 µM (inactive). For the same molecule, the GI50 was 57.8 µM (inactive) in the experiment with EKVX; 27.4 µM (inactive) with CAKI-1; 8.24 µM (inactive) in the experiment on HCC 2998; 38.6 µM (inactive) in the experiment with ACHN; 9.1 µM (inactive) in the experiment with HT-29.
Take `O=C(OCC(OC(=O)c1ccccc1)C1CC(C2(O)CCCCC2)C(=O)O1)c1ccccc1` (stereo not given): the GI50 in the experiment with OVCAR-4 was > 25 µM (inactive); with NCI-H23, 0.05 µM (active); in the experiment on U-251 it was > 25 µM (inactive); in the experiment on SK-MEL-28, > 25 µM (inactive); with MCF7, 21 µM (inactive); with IGROV-1, > 25 µM (inactive). Moreover, the GI50 in the experiment with M14, with SF-268, in the experiment on SF-539, in the experiment on SN12C, in the experiment with RXF 393 and with HCT-116 was > 25 µM (inactive) in each case. In addition, the GI50 is > 25 µM (inactive) with EKVX; > 25 µM (inactive) with CAKI-1; > 25 µM (inactive) in the experiment with HCC 2998; > 25 µM (inactive) in the experiment on ACHN; 14 µM (inactive) with HT-29.
Turning to `CN(CCO)/N=N/c1n[nH]cc1C(N)=O`, the GI50 in the experiment on OVCAR-4, in the experiment with NCI-H23, with U-251, in the experiment on SK-MEL-28, in the experiment with MCF7 and with IGROV-1 was > 100 µM (inactive) throughout. Also, the GI50 with HL-60, in the experiment on SF-268, in the experiment on SF-539, in the experiment with SN12C, in the experiment on RXF 393 and in the experiment with HCT-116 was > 100 µM (inactive) each time. Besides, the GI50 in the experiment with EKVX, in the experiment with CAKI-1, in the experiment with HOP-92, with HCC 2998 and in the experiment with HT-29 was > 100 µM (inactive) in each case.
As for `CC(=O)NC1C(O)CC(OCCCSCCN)(C(=O)O)OC1C(O)C(O)CO` (stereo not given), the GI50 in the experiment with OVCAR-4, in the experiment with NCI-H23, with U-251, in the experiment on SK-MEL-28, in the experiment with IGROV-1 and in the experiment on M14 was > 100 µM (inactive) in each case. For the same molecule, the GI50 in the experiment with HL-60, in the experiment on SF-268, with SF-539, in the experiment with SN12C, in the experiment on RXF 393 and with HCT-116 was > 100 µM (inactive) each time. Moreover, the GI50 with EKVX, in the experiment on CAKI-1, in the experiment with HOP-92, in the experiment with HCC 2998, with ACHN and in the experiment on HT-29 was > 100 µM (inactive) each time.
Take `OCC#CCNCl`: the GI50 in the experiment with OVCAR-4, in the experiment on NCI-H23, in the experiment on U-251, with SK-MEL-28, with MCF7 and with IGROV-1 was > 100 µM (inactive) each time. Further, the GI50 with HL-60, with SF-268, in the experiment with SF-539, in the experiment on SN12C, with RXF 393 and in the experiment on HCT-116 was > 100 µM (inactive) in each case. Further, the GI50 is > 100 µM (inactive) in the experiment with EKVX, > 100 µM (inactive) with HOP-92, > 100 µM (inactive) with HCC 2998 and > 28.1 µM (inactive) with HT-29.
Regarding `NS(=O)(=O)c1cc(S(N)(=O)=O)c(NC(=O)N(c2ccccc2)c2ccccc2)c(Cl)c1Cl`, the GI50 with OVCAR-4 is 27.4 µM (inactive); in the experiment with NCI-H23, 20 µM (inactive); with U-251 it was 24.3 µM (inactive); in the experiment on SK-MEL-28 it was 34.4 µM (inactive); with MCF7, 35 µM (inactive); in the experiment on IGROV-1 it was 8.13 µM (inactive). In addition, the GI50 in the experiment with M14 is 15.7 µM (inactive); in the experiment with HL-60, 24.8 µM (inactive); in the experiment on SF-268 it was 42.2 µM (inactive); in the experiment with SN12C, 19.5 µM (inactive); in the experiment with HCT-116 it was 38.7 µM (inactive); with EKVX, 19.1 µM (inactive). The GI50 is 21.4 µM (inactive) in the experiment with CAKI-1; 1.72 µM (inactive) in the experiment with HOP-92; 19.2 µM (inactive) with HCC 2998; 23.2 µM (inactive) in the experiment on ACHN; 19.5 µM (inactive) in the experiment with HT-29.
As to `CCCCCCCCC#CCCCCCCC(F)C(=O)O` (stereo not given), the GI50 with OVCAR-4 was 83.6 µM (inactive); with NCI-H23, > 100 µM (inactive); in the experiment with U-251 it was > 100 µM (inactive); in the experiment with SK-MEL-28, > 100 µM (inactive); in the experiment on T47D, > 100 µM (inactive); in the experiment with IGROV-1, > 100 µM (inactive). The GI50 with M14 is > 100 µM (inactive); with HL-60 it was 25 µM (inactive); with SF-268, > 100 µM (inactive); with SF-539, > 100 µM (inactive); in the experiment with RXF 393 it was > 100 µM (inactive); in the experiment with HCT-116, > 100 µM (inactive). In addition, the GI50 is 43.1 µM (inactive) with EKVX; > 100 µM (inactive) with HOP-92; > 100 µM (inactive) with HCC 2998; > 100 µM (inactive) in the experiment on ACHN; > 100 µM (inactive) in the experiment with HT-29.
